Data taken from patent US8785457B2 (Cellzome Limited, priority 2009, dated 2014).
Where two headings read alike, the source gives them in different places.

What was measured:
Assay type in all cases: binding
[1] = target: T1, DNA-dependent protein kinase (DNA-PK) (Homo sapiens, UniProt P78527); experiment: kinobeads assay, DNA-PK
T1 construct: endogenous in cells; host or cells: Jurkat, clone E6-1 (ATCC TIB-152) cell lysate
Summary of the method: (§1)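 Competitive binding in Jurkat cell lysate (5 mg/mL protein) against beads carrying an immobilized phenylmorpholin-chromen ligand, in DP buffer pH 7.4 with NP40, DTT and NaF. Bead-bound kinases were eluted and quantified by antibody dot blot with infrared detection, and IC50 was taken from dose-response curves of a 1:3 dilution series.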

PI3 Kbeta (PI3 Kb) = target: T2, PI3 Kbeta (PI3 Kb) (Homo sapiens, UniProt P42338); experiment: kinobeads assay, PI3Kbeta
T2 construct: endogenous in cells; host or cells: cell lysate
T2 sequence (P42338 whole entry): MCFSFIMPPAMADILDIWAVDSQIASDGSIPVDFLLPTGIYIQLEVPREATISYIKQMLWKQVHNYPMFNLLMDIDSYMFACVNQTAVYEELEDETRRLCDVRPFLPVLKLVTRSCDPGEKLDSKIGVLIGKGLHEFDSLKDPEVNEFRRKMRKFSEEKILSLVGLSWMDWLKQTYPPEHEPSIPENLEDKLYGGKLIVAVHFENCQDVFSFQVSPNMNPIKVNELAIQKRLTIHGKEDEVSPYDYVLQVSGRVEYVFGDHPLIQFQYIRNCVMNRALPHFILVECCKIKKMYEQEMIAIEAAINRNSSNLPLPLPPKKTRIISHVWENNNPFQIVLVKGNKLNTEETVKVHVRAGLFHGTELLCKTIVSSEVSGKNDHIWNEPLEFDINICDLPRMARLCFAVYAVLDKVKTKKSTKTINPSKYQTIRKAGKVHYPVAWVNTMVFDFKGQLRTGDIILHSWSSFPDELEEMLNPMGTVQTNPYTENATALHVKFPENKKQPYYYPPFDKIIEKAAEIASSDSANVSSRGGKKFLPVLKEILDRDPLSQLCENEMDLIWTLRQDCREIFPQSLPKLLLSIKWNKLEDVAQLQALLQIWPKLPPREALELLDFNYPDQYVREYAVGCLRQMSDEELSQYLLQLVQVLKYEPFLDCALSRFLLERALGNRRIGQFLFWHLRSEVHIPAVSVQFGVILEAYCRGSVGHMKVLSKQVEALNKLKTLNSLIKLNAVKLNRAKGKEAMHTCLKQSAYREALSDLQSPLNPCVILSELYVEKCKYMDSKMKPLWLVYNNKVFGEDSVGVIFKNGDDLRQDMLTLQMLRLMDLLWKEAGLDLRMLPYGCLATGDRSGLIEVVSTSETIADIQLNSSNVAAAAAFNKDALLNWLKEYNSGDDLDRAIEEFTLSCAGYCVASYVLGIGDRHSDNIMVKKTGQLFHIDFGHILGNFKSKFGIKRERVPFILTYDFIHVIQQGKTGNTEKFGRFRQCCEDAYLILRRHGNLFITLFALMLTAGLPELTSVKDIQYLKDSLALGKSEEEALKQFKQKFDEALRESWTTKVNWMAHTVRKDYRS
T2 sequence (P27986 whole entry partner): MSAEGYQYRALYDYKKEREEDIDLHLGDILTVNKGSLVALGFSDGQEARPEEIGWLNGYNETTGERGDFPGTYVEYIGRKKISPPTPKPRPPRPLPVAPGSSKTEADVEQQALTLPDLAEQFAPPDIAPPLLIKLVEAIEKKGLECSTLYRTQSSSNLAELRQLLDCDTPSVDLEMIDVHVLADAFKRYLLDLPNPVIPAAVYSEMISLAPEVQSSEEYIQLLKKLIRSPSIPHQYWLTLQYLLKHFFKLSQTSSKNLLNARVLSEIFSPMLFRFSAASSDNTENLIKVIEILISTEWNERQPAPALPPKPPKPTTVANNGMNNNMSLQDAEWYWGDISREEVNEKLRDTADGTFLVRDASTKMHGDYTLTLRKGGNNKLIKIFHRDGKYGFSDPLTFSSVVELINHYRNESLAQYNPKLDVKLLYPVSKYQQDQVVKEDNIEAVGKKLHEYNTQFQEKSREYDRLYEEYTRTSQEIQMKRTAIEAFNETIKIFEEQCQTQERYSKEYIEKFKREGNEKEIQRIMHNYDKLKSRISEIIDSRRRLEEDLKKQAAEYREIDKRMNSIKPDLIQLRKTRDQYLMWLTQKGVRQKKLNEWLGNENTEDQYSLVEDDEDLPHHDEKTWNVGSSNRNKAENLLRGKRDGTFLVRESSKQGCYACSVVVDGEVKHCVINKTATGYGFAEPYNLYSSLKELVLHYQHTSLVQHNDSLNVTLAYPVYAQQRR
Summary of the method: (§2)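 In this bead competition format, compound and immobilized phenylmorpholin-chromen ligand compete for kinases in cell lysate. Eluted captured kinases were measured by multiplexed immunodetection, and IC50 was calculated.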

PI3Kalpha (PI3Ka) = target: T3, PI3Kalpha (PI3Ka) (Homo sapiens, UniProt P42336); experiment: kinobeads assay, PI3Kalpha
T3 construct: endogenous in cells; host or cells: cell lysate
T3 sequence (P42336 whole entry): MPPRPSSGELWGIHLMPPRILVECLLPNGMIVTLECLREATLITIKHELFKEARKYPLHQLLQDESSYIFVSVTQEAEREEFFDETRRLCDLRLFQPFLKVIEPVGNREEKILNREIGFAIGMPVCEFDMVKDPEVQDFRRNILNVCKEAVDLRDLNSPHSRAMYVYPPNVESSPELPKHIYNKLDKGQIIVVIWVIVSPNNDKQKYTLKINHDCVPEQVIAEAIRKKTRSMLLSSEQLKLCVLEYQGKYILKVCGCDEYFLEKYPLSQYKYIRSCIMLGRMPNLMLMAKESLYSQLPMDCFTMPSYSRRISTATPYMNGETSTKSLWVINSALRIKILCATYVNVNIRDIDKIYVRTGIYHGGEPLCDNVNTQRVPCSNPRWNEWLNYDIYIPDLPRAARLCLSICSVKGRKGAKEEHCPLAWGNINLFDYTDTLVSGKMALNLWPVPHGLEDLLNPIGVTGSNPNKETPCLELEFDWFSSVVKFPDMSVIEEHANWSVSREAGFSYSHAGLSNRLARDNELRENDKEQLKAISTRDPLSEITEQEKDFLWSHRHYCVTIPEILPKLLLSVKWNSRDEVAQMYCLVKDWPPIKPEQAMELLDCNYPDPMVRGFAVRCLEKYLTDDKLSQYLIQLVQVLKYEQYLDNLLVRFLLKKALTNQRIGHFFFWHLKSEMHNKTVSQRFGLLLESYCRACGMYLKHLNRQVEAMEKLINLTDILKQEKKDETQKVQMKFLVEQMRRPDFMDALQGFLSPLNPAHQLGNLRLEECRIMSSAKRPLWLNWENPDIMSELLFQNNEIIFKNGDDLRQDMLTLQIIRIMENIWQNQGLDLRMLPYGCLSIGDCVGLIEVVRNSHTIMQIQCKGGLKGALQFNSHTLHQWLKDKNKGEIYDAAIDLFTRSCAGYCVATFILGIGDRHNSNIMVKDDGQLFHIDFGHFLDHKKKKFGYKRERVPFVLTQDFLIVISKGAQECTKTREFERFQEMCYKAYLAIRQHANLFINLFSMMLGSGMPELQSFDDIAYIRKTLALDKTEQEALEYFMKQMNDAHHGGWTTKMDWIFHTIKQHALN
T3 sequence (P27986 whole entry partner): as the sequence (P27986 whole entry partner) above
Summary of the method: as §2

PI3K delta (PI3 Kd) = target: T4, PI3K delta (PI3 Kd) (Homo sapiens, UniProt O00329); experiment: kinobeads assay, PI3K delta
T4 construct: endogenous in cells; host or cells: Jurkat, clone E6-1 (ATCC TIB-152) cell lysate
T4 sequence (O00329 whole entry): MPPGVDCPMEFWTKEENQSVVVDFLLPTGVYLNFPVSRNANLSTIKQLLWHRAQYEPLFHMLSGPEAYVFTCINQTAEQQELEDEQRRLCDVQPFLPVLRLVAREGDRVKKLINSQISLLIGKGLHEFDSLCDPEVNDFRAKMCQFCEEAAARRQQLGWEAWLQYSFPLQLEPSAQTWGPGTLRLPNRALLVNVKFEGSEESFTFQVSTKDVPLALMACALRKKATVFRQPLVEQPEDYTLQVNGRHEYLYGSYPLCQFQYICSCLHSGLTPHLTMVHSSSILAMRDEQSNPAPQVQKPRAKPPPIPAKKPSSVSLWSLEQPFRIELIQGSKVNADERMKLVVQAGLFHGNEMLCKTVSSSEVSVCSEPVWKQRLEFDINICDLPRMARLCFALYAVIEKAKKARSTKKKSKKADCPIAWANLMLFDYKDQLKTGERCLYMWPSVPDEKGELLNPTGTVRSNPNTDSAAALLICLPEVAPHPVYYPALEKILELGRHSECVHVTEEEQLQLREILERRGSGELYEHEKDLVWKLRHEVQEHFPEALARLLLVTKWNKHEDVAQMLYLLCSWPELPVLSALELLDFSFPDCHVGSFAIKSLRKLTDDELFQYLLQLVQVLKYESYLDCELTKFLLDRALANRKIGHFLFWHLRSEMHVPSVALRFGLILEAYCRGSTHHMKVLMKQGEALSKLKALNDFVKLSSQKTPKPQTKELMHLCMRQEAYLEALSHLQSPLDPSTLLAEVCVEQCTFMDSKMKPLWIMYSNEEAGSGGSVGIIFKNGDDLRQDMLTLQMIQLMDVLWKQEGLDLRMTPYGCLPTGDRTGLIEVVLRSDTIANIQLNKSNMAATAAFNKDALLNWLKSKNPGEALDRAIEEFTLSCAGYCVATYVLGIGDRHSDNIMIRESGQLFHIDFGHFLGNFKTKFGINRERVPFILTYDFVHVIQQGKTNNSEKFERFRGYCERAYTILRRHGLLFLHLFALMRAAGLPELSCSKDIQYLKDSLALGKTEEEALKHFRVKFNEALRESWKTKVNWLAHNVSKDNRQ
T4 sequence (P27986 whole entry partner): as the sequence (P27986 whole entry partner) above
Summary of the method: as §1

[2] = Further Kinobeads Data, read-out: DNAPK
[3] = Further Kinobeads Data, read-out: PI3Kb
[4] = Further Kinobeads Data, read-out: PI3Kd
[5] = kinobeads assay, Table 4, read-out: Inhibition values (IC50) DNA-PK
[6] = kinobeads assay, Table 6, read-out: Inhibition values (IC50) DNAPK
[7] = kinobeads assay, Table 6, read-out: Inhibition values (IC50) PI3Kb
[8] = kinobeads assay, Table 6, read-out: Inhibition values (IC50) PI3Ka
[9] = kinobeads assay, Table 4, read-out: Inhibition values (IC50) PI3Kd
[10] = kinobeads assay, Table 6, read-out: Inhibition values (IC50) PI3Kd
[11] = Further Kinobeads Data, read-out: PI3Ka

SMILES	IC50 [1, 2] [µM]	IC50 (PI3 Kbeta (PI3 Kb); [3]) [µM]	PI3Ka (PI3Kalpha (PI3Ka); Further Kinobeads Data)	IC50 (PI3K delta (PI3 Kd); [4]) [µM]	IC50 [1, 5] [µM]	IC50 [1, 6] [µM]	IC50 (PI3 Kbeta (PI3 Kb); [7]) [µM]	IC50 (PI3Kalpha (PI3Ka); [8]) [µM]	IC50 (PI3K delta (PI3 Kd); [9]) [µM]	IC50 (PI3K delta (PI3 Kd); [10]) [µM]	IC50 (PI3Kalpha (PI3Ka); [11]) [µM]	Inhibition values (IC50) PI3Ka (PI3Kalpha (PI3Ka); kinobeads assay, Table 6)
C[C@H]1COCCN1c1nc(-c2ccc(NC(=O)NC3CC3)cc2F)nc2c1CCN(C(=O)N(C)C)C2 [Example 165, (S)-2-(4-(3-cyclopropylureido)-2-fluorophenyl)-N,N-dimethyl-4-(3-methylmorpholino)-5,6-dihydropyrido[3,4-d]pyrimidine-7(8H)-carboxamide]	> 10	> 10	D (D >10 μM)	> 10	–	–	–	–	–	–	–	–
C[C@H]1COCCN1c1nc(-c2ccc(NC(=O)NC3CC3)cc2)nc2c1CCN(CC1CC1)C2 [Example 40, (S)-1-cyclopropyl-3-(4-(7-(cyclopropylmethyl)-4-(3-methylmorpholino)-5,6,7,8-tetrahydropyrido[3,4-d]pyrimidin-2-yl)phenyl)urea]	–	–	–	–	> 10	> 10	1 to 10	1 to 10	> 10	> 10	–	–
CCNC(=O)Nc1ccc(-c2nc3c(c(N4CCOC[C@@H]4C)n2)CN(C)C3)c(F)c1 [Example 160, (S)-1-ethyl-3-(3-fluoro-4-(6-methyl-4-(3-methylmorpholino)-6,7-dihydro-5H-pyrrolo[3,4-d]pyrimidin-2-yl)phenyl)urea]	> 10	> 10	D (D >10 μM)	> 10	–	–	–	–	–	–	–	–
CCNC(=O)Nc1ccc(-c2nc3c(c(N4CCOC[C@@H]4C)n2)CCN(C(=O)N(C)C)C3)c(F)c1 [Example 176, (S)-2-(4-(3-ethylureido)-2-fluorophenyl)-N,N-dimethyl-4-(3-methylmorpholino)-5,6-dihydropyrido[3,4-d]pyrimidine-7(8H)-carboxamide]	1 to 10	1 to 10	–	1 to 10	–	–	–	–	–	–	1 to 10	–
CCNC(=O)Nc1ccc(-c2nc3c(c(N4CCOC[C@@H]4C)n2)CCN(CC)C3)cc1 [Example 27, (S)-1-ethyl-3-(4-(7-ethyl-4-(3-methylmorpholino)-5,6,7,8-tetrahydropyrido[3,4-d]pyrimidin-2-yl)phenyl)urea]	–	–	–	–	> 10	> 10	1 to 10	1 to 10	> 10	> 10	–	–
CCOC(=O)N1Cc2nc(-c3ccc(NC(=O)NCCF)cc3F)nc(N3CCOC[C@@H]3C)c2C1 [Example 168, (S)-ethyl 2-(2-fluoro-4-(3-(2-fluoroethyl)ureido)phenyl)-4-(3-methylmorpholino)-5H-pyrrolo[3,4-d]pyrimidine-6(7H)-carboxylate]	> 10	> 10	–	1 to 10	–	–	–	–	–	–	1 to 10	–
COC(=O)N1Cc2nc(-c3ccc(NC(=O)NCCF)cc3F)nc(N3CCOC[C@@H]3C)c2C1 [Example 183, (S)-methyl 2-(2-fluoro-4-(3-(2-fluoroethyl)ureido)phenyl)-4-(3-methylmorpholino)-5H-pyrrolo[3,4-d]pyrimidine-6(7H)-carboxylate]	> 10	> 10	D (D >10 μM)	> 10	–	–	–	–	–	–	–	–
CC(C)C(=O)N1Cc2nc(-c3ccc(NC(=O)NC4CC4)cc3F)nc(N3CCOC[C@@H]3C)c2C1 [Example 174, (S)-1-cyclopropyl-3-(3-fluoro-4-(6-isobutyryl-4-(3-methylmorpholino)-6,7-dihydro-5H-pyrrolo[3,4-d]pyrimidin-2-yl)phenyl)urea]	> 10	> 10	D (D >10 μM)	> 10	–	–	–	–	–	–	–	–
CCNC(=O)Nc1ccc(-c2nc3c(c(N4CCOC[C@@H]4C)n2)CCN(C(=O)C(C)C)C3)cc1 [Example 57, (S)-1-ethyl-3-(4-(7-isobutyryl-4-(3-methylmorpholino)-5,6,7,8-tetrahydropyrido[3,4-d]pyrimidin-2-yl)phenyl)urea]	–	–	–	–	> 10	> 10	> 10	–	> 10	> 10	–	D (D >10 μM)
CCOC(=O)N1Cc2nc(-c3ccc(NC(=O)NC4CC4)cc3F)nc(N3CCOCC3)c2C1 [Example 156, Ethyl 2-(4-(3-cyclopropylureido)-2-fluorophenyl)-4-morpholino-5H-pyrrolo[3,4-d]pyrimidine-6(7H)-carboxylate]	> 10	> 10	D (D >10 μM)	> 10	–	–	–	–	–	–	–	–
CCNC(=O)Nc1ccc(-c2nc3c(c(N4CCOC[C@@H]4C)n2)CCN(CC2CC2)C3)cc1 [Example 37, (S)-1-(4-(7-(cyclopropylmethyl)-4-(3-methylmorpholino)-5,6,7,8-tetrahydropyrido[3,4-d]pyrimidin-2-yl)phenyl)-3-ethylurea]	–	–	–	–	> 10	> 10	> 10	–	> 10	> 10	–	D (D >10 μM)
CCOC(=O)N1Cc2nc(-c3ccc(NC(=O)NCCO)cc3F)nc(N3CCOC[C@@H]3C)c2C1 [Example 167, (S)-Ethyl 2-(2-fluoro-4-(3-(2-hydroxyethyl)ureido)phenyl)-4-(3-methylmorpholino)-5H-pyrrolo[3,4-d]pyrimidine-6(7H)-carboxylate]	> 10	1 to 10	D (D >10 μM)	1 to 10	–	–	–	–	–	–	–	–
CC(C)NC(=O)N1CCc2c(nc(-c3ccc(NC(=O)NC4CC4)cc3F)nc2N2CCOC[C@@H]2C)C1 [Example 189, (S)-2-(4-(3-cyclopropylureido)-2-fluorophenyl)-N-isopropyl-4-(3-methylmorpholino)-5,6-dihydropyrido[3,4-d]pyrimidine-7(8H)-carboxamide]	> 10	> 10	D (D >10 μM)	> 10	–	–	–	–	–	–	–	–
COC(=O)N1Cc2nc(-c3ccc(NC(=O)NC4CC4)cc3F)nc(N3CCOC[C@@H]3C)c2C1 [Example 146, (S)-methyl 2-(4-(3-cyclopropylureido)-2-fluorophenyl)-4-(3-methylmorpholino)-5H-pyrrolo[3,4-d]pyrimidine-6(7H)-carboxylate]	> 10	> 10	D (D >10 μM)	> 10	–	–	–	–	–	–	–	–
C[C@@H]1COCCN1c1nc(-c2ccc(NC(=O)NC3CC3)cc2F)nc2c1CN(C=O)C2 [Example 190, (R)-1-cyclopropyl-3-(3-fluoro-4-(6-formyl-4-(3-methylmorpholino)-6,7-dihydro-5H-pyrrolo[3,4-d]pyrimidin-2-yl)phenyl)urea]	> 10	> 10	D (D >10 μM)	> 10	–	–	–	–	–	–	–	–
C[C@H]1COCCN1c1nc(-c2ccc(NC(=O)NC3CC3)cc2)nc2c1CCN(CC(C)(C)C)C2 [Example 41, (S)-1-cyclopropyl-3-(4-(4-(3-methylmorpholino)-7-neopentyl-5,6,7,8-tetrahydropyrido[3,4-d]pyrimidin-2-yl)phenyl)urea]	–	–	–	–	> 10	> 10	> 10	–	> 10	> 10	–	D (D >10 μM)
C[C@H]1COCCN1c1nc(-c2ccc(NC(=O)NC3CC3)cc2)nc2c1CN(C(=O)C(C)(C)C)C2 [Example 45, (S)-1-cyclopropyl-3-(4-(4-(3-methylmorpholino)-6-pivaloyl-6,7-dihydro-5H-pyrrolo[3,4-d]pyrimidin-2-yl)phenyl)urea]	–	–	–	–	> 10	> 10	> 10	–	> 10	> 10	–	D (D >10 μM)
